# Test system: collagen I
# Assay: Immunohistochemical analysis of collagen I (confocal fluorescence)
# Format: cell-based, human
# Conditions: 50 μM; 72 h
# Experimental: After 72 h culture postconfluency, the culture medium was removed and immunolabelling was performed. The polyclonal anti-collagen I primary antibody was applied, then after removal of the medium the secondary antibody conjugated to a fluorochrome alexa 488 is added. The fluorescence was examined under the LSM700 confocal microscope.
smiles,measurement,value
"O=C1O[C@H]([C@@H](O)CO)C(O)=C1O [Ascorbic acid, ascorbic acid]",Area/cells % (control = 100),114.96%
same,Area/cells Mean (collagen I fluorescence),124238.13
